# Test results published in patent US6653460B1 (priority 1996, dated 2003).
# What was measured:
# [1] = biological target: T1, class E calcium channels (192C cells) (Homo sapiens, UniProt Q15878); format: cell-based
# T1 construct: expressed in transfected cells; host or cells: HEK 293 (192C cells)
# [2] = system: calcium current (carried by barium) in neurohypophysial terminals; format: cell-based, rat
# T1 sequence (Q15878 whole entry): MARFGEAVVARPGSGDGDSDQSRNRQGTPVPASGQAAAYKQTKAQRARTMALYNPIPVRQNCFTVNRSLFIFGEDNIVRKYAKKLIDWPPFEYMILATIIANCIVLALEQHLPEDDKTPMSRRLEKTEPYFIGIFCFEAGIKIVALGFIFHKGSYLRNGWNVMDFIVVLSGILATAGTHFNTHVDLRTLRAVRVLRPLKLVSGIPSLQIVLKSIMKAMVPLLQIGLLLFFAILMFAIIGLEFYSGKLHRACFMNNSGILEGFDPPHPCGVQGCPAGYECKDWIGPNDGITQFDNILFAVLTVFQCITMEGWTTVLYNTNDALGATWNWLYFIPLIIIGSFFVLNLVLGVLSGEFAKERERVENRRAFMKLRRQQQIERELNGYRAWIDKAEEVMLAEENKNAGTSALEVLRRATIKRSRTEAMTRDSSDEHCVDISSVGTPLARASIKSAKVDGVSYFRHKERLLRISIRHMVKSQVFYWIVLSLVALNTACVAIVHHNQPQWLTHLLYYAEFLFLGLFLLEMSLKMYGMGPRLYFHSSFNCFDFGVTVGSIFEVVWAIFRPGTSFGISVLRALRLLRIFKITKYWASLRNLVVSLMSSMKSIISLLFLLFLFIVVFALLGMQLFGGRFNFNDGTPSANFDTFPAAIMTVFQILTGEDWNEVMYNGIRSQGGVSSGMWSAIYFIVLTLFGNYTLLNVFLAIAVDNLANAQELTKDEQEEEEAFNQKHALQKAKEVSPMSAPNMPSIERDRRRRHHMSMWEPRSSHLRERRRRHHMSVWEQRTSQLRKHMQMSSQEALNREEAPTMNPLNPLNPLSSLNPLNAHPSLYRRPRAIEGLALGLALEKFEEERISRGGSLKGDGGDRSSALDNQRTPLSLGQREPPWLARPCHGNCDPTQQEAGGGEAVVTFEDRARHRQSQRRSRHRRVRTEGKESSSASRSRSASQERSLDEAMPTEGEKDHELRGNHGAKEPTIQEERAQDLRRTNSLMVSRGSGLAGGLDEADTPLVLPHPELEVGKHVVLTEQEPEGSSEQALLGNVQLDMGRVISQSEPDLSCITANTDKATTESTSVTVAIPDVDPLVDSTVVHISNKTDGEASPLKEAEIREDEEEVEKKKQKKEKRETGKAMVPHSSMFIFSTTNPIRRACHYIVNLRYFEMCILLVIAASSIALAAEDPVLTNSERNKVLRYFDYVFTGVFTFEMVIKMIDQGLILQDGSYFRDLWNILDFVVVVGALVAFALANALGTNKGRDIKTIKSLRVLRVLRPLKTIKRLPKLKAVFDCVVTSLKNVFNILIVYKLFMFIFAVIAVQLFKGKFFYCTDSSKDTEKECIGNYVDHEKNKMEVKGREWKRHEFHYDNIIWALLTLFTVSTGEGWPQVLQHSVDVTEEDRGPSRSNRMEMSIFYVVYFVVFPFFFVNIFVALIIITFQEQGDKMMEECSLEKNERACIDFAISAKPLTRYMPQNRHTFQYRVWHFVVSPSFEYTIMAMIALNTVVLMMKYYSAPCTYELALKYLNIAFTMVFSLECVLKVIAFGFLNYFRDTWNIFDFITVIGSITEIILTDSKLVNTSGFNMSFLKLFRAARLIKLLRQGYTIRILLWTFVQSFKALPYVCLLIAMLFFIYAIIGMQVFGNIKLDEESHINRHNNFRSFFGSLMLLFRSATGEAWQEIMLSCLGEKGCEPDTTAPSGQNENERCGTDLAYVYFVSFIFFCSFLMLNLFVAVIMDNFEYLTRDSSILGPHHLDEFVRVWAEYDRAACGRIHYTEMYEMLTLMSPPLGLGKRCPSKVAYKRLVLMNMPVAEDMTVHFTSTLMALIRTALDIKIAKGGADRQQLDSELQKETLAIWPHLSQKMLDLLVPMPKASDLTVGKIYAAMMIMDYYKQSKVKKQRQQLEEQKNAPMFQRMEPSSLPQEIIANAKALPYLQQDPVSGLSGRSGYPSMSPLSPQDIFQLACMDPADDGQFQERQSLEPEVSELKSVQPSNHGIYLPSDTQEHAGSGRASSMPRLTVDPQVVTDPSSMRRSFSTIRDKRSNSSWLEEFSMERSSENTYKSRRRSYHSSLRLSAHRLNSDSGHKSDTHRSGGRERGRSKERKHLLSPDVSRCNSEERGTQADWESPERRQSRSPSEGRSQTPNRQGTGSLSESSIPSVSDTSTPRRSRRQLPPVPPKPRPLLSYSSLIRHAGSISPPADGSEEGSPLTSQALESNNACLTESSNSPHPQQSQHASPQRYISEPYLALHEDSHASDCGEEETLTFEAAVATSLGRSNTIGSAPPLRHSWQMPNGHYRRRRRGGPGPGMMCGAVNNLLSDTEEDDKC
compound,measurement,setting,value
CSCC[C@@H]1NC(=O)[C@H](CC(C)C)NC(=O)[C@H](CCCNC(=N)N)NC(=O)[C@H](CO)NC(=O)[C@@H]2CSSC[C@@H]3NC(=O)[C@H](CO)NC(=O)CNC(=O)[C@H]([C@@H](C)O)NC(=O)[C@H](CSSC[C@H](N)C(=O)N[C@@H](CCCCN)C(=O)NCC(=O)N[C@@H](CCCCN)C(=O)NCC(=O)N[C@@H](C)C(=O)N[C@@H](CCCCN)C(=O)N2)NC(=O)[C@H](CSSC[C@@H](C(N)=O)NC(=O)[C@H](CCCCN)NC(=O)CNC(=O)[C@H](CO)NC(=O)[C@H](CCCNC(=N)N)NC3=O)NC(=O)[C@H](CC(=O)O)NC(=O)[C@H](Cc2ccc(O)cc2)NC1=O [SNX-111],sensitivity of depolarization evoked increase in internal calcium,[1],resistant
same,block of current remaining after nicardipine,[2],blocked part but not all of the remaining current
